Assay results from US20240043427A1 (Gilead Sciences, Inc., priority 2020, published 2024).
pEC50, pIC50: −log10 of the molar value. Several values for one entry are separate records, joined by “and”; a condition that tells them apart may be missing. Equal values may be shown once.

Key:
CD73 [1] = molecular target: T1, CD73 (Homo sapiens (Human), UniProt P21589); test: CD73 Biochemical IC50 Assay; conditions: CD73 0.3 nM, AMP 15 uM, 25 mM Tris pH 7.4, 5 mM MgCl2
Method: CD73 Biochemical IC50 Assay
Compound serial dilutions were pre-spotted into Thermo Nunc assay plate. 50 μL CD73 enzyme buffer (CD73 purchased from R&D system=0.6 nM, 25 mM Tris, pH 7.4, 5 mM MgCl2) was added into the assay plate and incubated for 15 mins. […] The samples were run using Rapid fire.

CD73 [2] = molecular target: T1, CD73; test: MDA-MB-231 Cell Based CD73 Activity Assay; conditions: MDA-MB-231-GFP cells, RPMI medium with 10% human plasma, 200 uM AMP
Method: MDA-MB-231 Cell Based CD73 Activity Assay
MDA-MB-231-GFP cells were seeded in 384-well plates (Greiner 781946) at a density of 10000 cells per well in 50 μL of RPMI medium with 10% HP (human plasma). Cells were plated into assay plate with compounds pre-spotted, for an overnight compound treatment. 50 μL of 400 μM AMP (final concentration 200 μM) using a Bio-tek dispenser. Plates were incubated for 100 mins. […] The samples were run using Rapid fire.

CD73 [3] = molecular target: T1, CD73; test: MDA-MB-231 Cell Based CD73 Activity Assay (DMEM); conditions: MDA-MB-231-GFP cells, DMEM medium with 10% human plasma, 200 uM AMP

T1 sequence (P21589 27-574): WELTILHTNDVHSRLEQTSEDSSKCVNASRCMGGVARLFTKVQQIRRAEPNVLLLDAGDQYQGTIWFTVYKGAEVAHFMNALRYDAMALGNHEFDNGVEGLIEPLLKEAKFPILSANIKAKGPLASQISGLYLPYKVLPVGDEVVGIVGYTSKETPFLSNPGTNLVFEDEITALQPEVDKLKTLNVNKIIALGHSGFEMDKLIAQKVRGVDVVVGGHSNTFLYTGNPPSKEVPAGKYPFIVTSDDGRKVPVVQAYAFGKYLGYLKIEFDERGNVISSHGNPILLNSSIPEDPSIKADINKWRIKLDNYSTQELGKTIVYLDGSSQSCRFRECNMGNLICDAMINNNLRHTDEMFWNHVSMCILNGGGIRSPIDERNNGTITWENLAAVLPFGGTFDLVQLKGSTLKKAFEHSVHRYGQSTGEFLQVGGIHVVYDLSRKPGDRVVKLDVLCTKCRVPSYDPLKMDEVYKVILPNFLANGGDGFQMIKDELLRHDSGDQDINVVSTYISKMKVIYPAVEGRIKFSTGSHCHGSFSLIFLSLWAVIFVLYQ

Compound | pIC50 (CD73 [1]) | pEC50 (CD73 [2]) | pEC50 (CD73 [3])
5-(8-((1S,2S)-2-(2,3,5-trifluorophenyl)cyclopropyl)imidazo[1,2-b]pyridazin-6-yl)pyrimidine-2,4(1H,3H)-dione and 5-(8-((1R,2R)-2-(2,3,5-trifluorophenyl)cyclopropyl)imidazo[1,2-b]pyridazin-6-yl)pyrimidine-2,4(1H,3H)-dione [Example 61] | 7.92 | 7.78 | 
5-(8-((1S,2S)-2-phenylcyclopropyl)imidazo[1,2-b]pyridazin-6-yl)pyrimidine-2,4-(1H,3H)-dione and 5-(8-((1R,2R)-2-phenylcyclopropyl)imidazo[1,2-b]pyridazin-6-yl)pyrimidine-2,4-(1H,3H)-dione [Example 104] | 6.71 | 7.64 | 
N#Cc1cc([C@H]2C[C@@H]2c2cc(-c3c[nH]c(=O)[nH]c3=O)nn3ccnc23)ccc1F (mixture of isomers) [Example 64, 5-((1S,2S)-2-(6-(2,4-dioxo-1,2,3,4-tetrahydropyrimidin-5-yl)imidazo[1,2-b]pyridazin-8-yl)cyclopropyl)-2-fluorobenzonitrile and 5-((1R,2R)-2-(6-(2,4-dioxo-1,2,3,4-tetrahydropyrimidin-5-yl)imidazo[1,2-b]pyridazin-8-yl)cyclopropyl)-2-fluorobenzonitrile] |  | 8.54 | 8.12
O=c1[nH]cc(-c2cc([C@H]3C[C@@H]3C(F)(F)F)c3nccn3n2)c(=O)[nH]1 (mixture of isomers) [Example 107, 5-(8-((1S,2S)-2-(trifluoromethyl)cyclopropyl)imidazo[1,2-b]pyridazin-6-yl)pyrimidine-2,4(1H,3H)-dione and 5-(8-((1R,2R)-2-(trifluoromethyl)cyclopropyl)imidazo[1,2-b]pyridazin-6-yl)pyrimidine-2,4(1H,3H)-dione] |  | 7.26 | 
O=c1[nH]cc(-c2cc([C@H]3C[C@]3(F)c3ccccc3)c3nccn3n2)c(=O)[nH]1 (mixture of isomers) [Example 108, 5-(8-((1R,2R)-2-fluoro-2-phenylcyclopropyl)imidazo[1,2-b]pyridazin-6-yl)pyrimidine-2,4(1H,3H)-dione and 5-(8-((1S,2S)-2-fluoro-2-phenylcyclopropyl)imidazo[1,2-b]pyridazin-6-yl)pyrimidine-2,4(1H,3H)-dione] |  | 7.62 | 
COC[C@H]1C[C@@H]1c1cc(-c2c[nH]c(=O)[nH]c2=O)nn2ccnc12 (racemic) [Example 4, 5-(8-((1S,2S)-2-(methoxymethyl)cyclopropyl)imidazo[1,2-b]pyridazin-6-yl)pyrimidine-2,4(1H,3H)-dione and 5-(8-((1R,2R)-2-(methoxymethyl)cyclopropyl)imidazo[1,2-b]pyridazin-6-yl)pyrimidine-2,4(1H,3H)-dione] | 6.71 and 6.64 | 6.72 and 6.54 | 
O=c1[nH]cc(-c2cc([C@H]3CC34CCC4)c3nccn3n2)c(=O)[nH]1 (racemic) [Example 5, (S)-5-(8-(spiro[2.3]hexan-1-yl)imidazo[1,2-b]pyridazin-6-yl)pyrimidine-2,4(1H,3H)-dione and (R)-5-(8-(spiro[2.3]hexan-1-yl)imidazo[1,2-b]pyridazin-6-yl)pyrimidine-2,4(1H,3H)-dione] | 5.81 and 5.60 | 5.70 and 5.60 | 
CC(C)(C)[C@H]1C[C@@H]1c1cc(-c2c[nH]c(=O)[nH]c2=O)nn2ccnc12 (racemic) [Example 6, 5-(8-((1S,2S)-2-(tert-butyl)cyclopropyl)imidazo[1,2-b]pyridazin-6-yl)pyrimidine-2,4-(1H,3H)-dione and 5-(8-((1R,2R)-2-(tert-butyl)cyclopropyl)imidazo[1,2-b]pyridazin-6-yl)pyrimidine-2,4-(1H,3H)-dione] | 6.79 | 6.74 | 
O=c1[nH]cc(-c2cc(N3C[C@@H](F)[C@@H](F)C3)c3nccn3n2)c(=O)[nH]1 [Example 77, 5-[8-[(3S,4R)-3,4-difluoropyrrolidin-1-yl]imidazo[1,2-b]pyridazin-6-yl]-1H-pyrimidine-2,4-dione and 5-[8-[(3R,4S)-3,4-difluoropyrrolidin-1-yl]imidazo[1,2-b]pyridazin-6-yl]-1H-pyrimidine-2,4-dione] |  | 7.87 | 7.55
